The source of these data is patent publication US20110160196A1, “FACTOR XA INHIBITORS” (Millennium Pharmaceuticals, Inc., priority 2007, published 2011).

Each structure is given as a SMILES string.

The assay has as its target T1, human plasma protein factor Xa (Homo sapiens, UniProt P00742).
T1 construct: The human plasma protein factor Xa was purchased; purchased Haematologic Technologies (Essex Junction, Vt.); host or cells: human plasma
The assay is described as follows: Factor Xa IC50 determination (cleavage of paranitroanilide substrate S-2765). It is filed as biochemical. As to conditions: factor Xa 1 nM, S-2765 100 μM, Tris buffered saline pH 7.4, read at 405 nm. A digest of the protocol: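 Human plasma factor Xa (1 nM) preincubated 5 min at room temperature with inhibitor (0.01 nM–10 μM) in Tris-buffered saline pH 7.4 with 5 mM CaCl2, 0.1% BSA, 5% DMSO. S-2765 added at 100 μM final; pNA release followed at 405 nm for 2 min. IC50 from four-parameter fit of initial velocities.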

T1 sequence (P00742 235-488 limits assumed): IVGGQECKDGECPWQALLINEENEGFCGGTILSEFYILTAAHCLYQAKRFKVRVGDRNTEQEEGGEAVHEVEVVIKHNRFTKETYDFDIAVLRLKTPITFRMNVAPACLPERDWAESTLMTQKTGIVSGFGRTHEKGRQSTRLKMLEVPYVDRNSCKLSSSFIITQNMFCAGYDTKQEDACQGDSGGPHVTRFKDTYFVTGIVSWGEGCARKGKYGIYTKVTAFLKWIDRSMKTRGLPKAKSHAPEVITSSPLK
T1 sequence (P00742 41-179 partner limits assumed): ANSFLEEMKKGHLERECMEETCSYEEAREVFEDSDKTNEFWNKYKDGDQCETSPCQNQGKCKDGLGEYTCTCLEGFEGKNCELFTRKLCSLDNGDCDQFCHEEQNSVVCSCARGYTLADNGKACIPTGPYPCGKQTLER

Usually IC50 stands for the concentration at which inhibition is half-maximal. Turning to `O=C(NCc1cn(-c2ccc(-n3ccccc3=O)cc2OCCc2ccccn2)nn1)c1ccc(Cl)s1` [Compound 168, 5-Chloro-N-((1-(4-(2-oxopyridin-1(2H)-yl)-2-(2-(pyridin-2-yl)ethoxy)phenyl)-1H-1,2,3-triazol-4-yl)methyl)thiophene-2-carboxamide], the IC50 is ≤ 100 nM.

For `O=C(NCc1cn(-c2ccc(-n3ccccc3=O)cc2OCc2ccccn2)nn1)c1ccc(Cl)s1` [Compound 169, 5-Chloro-N-((1-(4-(2-oxopyridin-1(2H)-yl)-2-(pyridin-2-ylmethoxy)phenyl)-1H-1,2,3-triazol-4-yl)methyl)thiophene-2-carboxamide], the IC50 is ≤ 100 nM.

As to `O=C(NCc1cn(-c2ccc(-n3ccccc3=O)cc2OCc2ccc3ccccc3n2)nn1)c1ccc(Cl)s1` [Compound 170, 5-Chloro-N-((1-(4-(2-oxopyridin-1(2H)-yl)-2-(quinolin-2-ylmethoxy)phenyl)-1H-1,2,3-triazol-4-yl)methyl)thiophene-2-carboxamide], the IC50 is ≤ 100 nM.

In the case of `O=C(NCc1cn(-c2ccc(-n3ccccc3=O)cc2OCc2cscn2)nn1)c1ccc(Cl)s1` [Compound 171, 5-Chloro-N-((1-(4-(2-oxopyridin-1(2H)-yl)-2-(thiazol-4-ylmethoxy)phenyl)-1H-1,2,3-triazol-4-yl)methyl)thiophene-2-carboxamide], the IC50 is ≤ 100 nM.

Take `Cc1nc(COc2cc(-n3ccccc3=O)ccc2-n2cc(CNC(=O)c3ccc(Cl)s3)nn2)cs1` [Compound 172, 5-Chloro-N-((1-(2-((2-methylthiazol-4-yl)methoxy)-4-(2-oxopyridin-1(2H)-yl)phenyl)-1H-1,2,3-triazol-4-yl)methyl)thiophene-2-carboxamide]: the 50% inhibitory concentration (IC50) was ≤ 100 nM.

With `O=C(NCc1cn(-c2ccc(-n3ccccc3=O)cc2OCc2nc3ccccc3[nH]2)nn1)c1ccc(Cl)s1` [Compound 173, N-((1-(2-((1H-Benzo[d]imidazol-2-yl)methoxy)-4-(2-oxopyridin-1(2H)-yl)phenyl)-1H-1,2,3-triazol-4-yl)methyl)-5-chlorothiophene-2-carboxamide], the IC50 is ≤ 100 nM.

As for `O=C(NCc1cn(-c2ccc(-n3ccccc3=O)cc2OCCc2cccnc2)nn1)c1ccc(Cl)s1` [Compound 174, 5-Chloro-N-((1-(4-(2-oxopyridin-1(2H)-yl)-2-(2-(pyridin-3-yl)ethoxy)phenyl)-1H-1,2,3-triazol-4-yl)methyl)thiophene-2-carboxamide], the IC50 is ≤ 100 nM.

Consider `O=C(NCc1cn(-c2ccc(-n3ccccc3=O)cc2OCc2ncon2)nn1)c1ccc(Cl)s1` [Compound 175, N-((1-(2-((1,2,4-Oxadiazol-3-yl)methoxy)-4-(2-oxopyridin-1(2H)-yl)phenyl)-1H-1,2,3-triazol-4-yl)methyl)-5-chlorothiophene-2-carboxamide], for which the IC50 is ≤ 100 nM.

Take `Cn1ccnc1COc1cc(-n2ccccc2=O)ccc1-n1cc(CNC(=O)c2ccc(Cl)s2)nn1` [Compound 176, 5-Chloro-N-((1-(2-((1-methyl-1H-imidazol-2-yl)methoxy)-4-(2-oxopyridin-1(2H)-yl)phenyl)-1H-1,2,3-triazol-4-yl)methyl)thiophene-2-carboxamide]: the IC50 is ≤ 100 nM.

For the compound `O=C(NCc1cn(-c2ccc(-n3ccccc3=O)cc2OCc2ncc[nH]2)nn1)c1ccc(Cl)s1` [Compound 177, N-((1-(2-((1H-Imidazol-2-yl)methoxy)-4-(2-oxopyridin-1(2H)-yl)phenyl)-1H-1,2,3-triazol-4-yl)methyl)-5-chlorothiophene-2-carboxamide], the 50% inhibitory concentration (IC50) was ≤ 100 nM.

With `O=C(NCc1cn(-c2ccc(-n3ccccc3=O)cc2OCc2nccn2Cc2ncc[nH]2)nn1)c1ccc(Cl)s1` [Compound 178, N-((1-(2-((1-((1H-imidazol-2-yl)methyl)-1H-imidazol-2-yl)methoxy)-4-(2-oxopyridin-1(2H)-yl)phenyl)-1H-1,2,3-triazol-4-yl)methyl)-5-chlorothiophene-2-carboxamide], the IC50 is ≤ 100 nM.

Take `Cc1cc(COc2cc(-n3ccccc3=O)ccc2-n2cc(CNC(=O)c3ccc(Cl)s3)nn2)no1` [Compound 179, 5-Chloro-N-((1-(2-((5-methylisoxazol-3-yl)methoxy)-4-(2-oxopyridin-1(2H)-yl)phenyl)-1H-1,2,3-triazol-4-yl)methyl)thiophene-2-carboxamide]: the IC50 was ≤ 100 nM.

On to `O=C(NCc1cn(-c2ccc(-n3ccccc3=O)cc2OCCn2cccc2)nn1)c1ccc(Cl)s1` [Compound 180, N-((1-(2-(2-(1H-Pyrrol-1-yl)ethoxy)-4-(2-oxopyridin-1(2H)-yl)phenyl)-1H-1,2,3-triazol-4-yl)methyl)-5-chlorothiophene-2-carboxamide], for which the IC50 is ≤ 100 nM.
